# Structures can show the parent of a compound that is named as a salt. Where two headings read alike, the source gives them in different places.
# Experiment: Rat 28-day GLP repeat dose PO study (toxicokinetics)
# Format: in vivo
# Procedure: The vehicle was 0.5% HPMC. There were 15 rats/sex in the control and high dose groups (5/sex for a 14-day recovery period) while the low and mid doses consisted of 10 rats/sex. Satellite groups of rats/sex/group for toxicokinetics were included.
# Rats in Group 1 (Vehicle Control) were bled once at approximately 1 hour post-dose on those days.
# [1] = female, rat, in vivo, po, 50 mg/kg, Day 1, F, 50 mg/kg PO
# [2] = female, rat, in vivo, po, 500 mg/kg, Day 14, F, 500 mg/kg PO
# [3] = female, rat, in vivo, po, 500 mg/kg, Day 28, F, 500 mg/kg PO
# [4] = female, rat, in vivo, po, 1000 mg/kg, Day 1, F, 1000 mg/kg PO
# [5] = female, rat, in vivo, po, 1000 mg/kg, Day 14, F, 1000 mg/kg PO
# [6] = female, rat, in vivo, po, 1000 mg/kg, Day 28, F, 1000 mg/kg PO
# [7] = female, rat, in vivo, po, 2000 mg/kg, Day 1, F, 2000 mg/kg PO
# [8] = female, rat, in vivo, po, 2000 mg/kg, Day 14, F, 2000 mg/kg PO
# [9] = female, rat, in vivo, po, 2000 mg/kg, Day 28, F, 2000 mg/kg PO
# [10] = male, rat, in vivo, po, 500 mg/kg, Day 1, M, 500 mg/kg PO
# [11] = male, rat, in vivo, po, 500 mg/kg, Day 14, M, 500 mg/kg PO
smiles,measurement,setting,value
"CC1(C)SC(Nc2ccccc2O)=N[C@@H]1C(=O)O [Compound 1, (R)-2-(2-hydroxyphenylamino)-5,5-dimethyl-4,5-dihydrothiazole-4-carboxylic acid mono-hydrochloride]",Cmax,"28-day pivotal rat study, at some doses",over 100 μg/mL
same,Tmax,"28-day study, rat",≤ 1 h
same,overall mean t1/2,"all sexes, days, dose levels",4.24 h
same,Tmax,"both sexes, rat, in vivo, po",0.5 to 2 h
same,half-life,"both sexes, rat, in vivo, po",3 to 8 h
same,Tmax,"both sexes, rat, in vivo, po, Days 1, 14 and 28, 500 to 2000 mg/kg PO, read-out: median tmax",1 h
same,Tmax,"both sexes, rat, in vivo, po, Days 14 and 28, all dose levels and sexes, read-out: overall median tmax",1 h
same,overall mean V/F,"both, rat, in vivo",12.5 L/kg
same,overall mean CL/F,"both, rat, in vivo, po",35.2 mL/min/kg
same,AUC,[1],298 µg·h/mL
same,AUC(0-inf),[1],299 µg·h/mL
same,CL/F,"female, rat, in vivo, po, 50 mg/kg, Day 1, F, 50 mg/kg PO, read-out: CL/F (CLz/F) (converted)",27.8 mL/min/kg
same,Cmax,"female, rat, in vivo, po, 50 mg/kg, Day 1, F, 50 mg/kg PO, read-out: Cmax",74.8 µg/mL
same,Vd/F,"female, rat, in vivo, po, 50 mg/kg, Day 1, F, 50 mg/kg PO, read-out: V/F (Vz/F)",8.1 L/kg
same,half-life,"female, rat, in vivo, po, 50 mg/kg, Day 1, F, 50 mg/kg PO, read-out: t1/2 (converted)",3.36 h
same,AUC,[2],223 µg·h/mL
same,AUC(0-inf),[2],225 µg·h/mL
same,CL/F,"female, rat, in vivo, po, 500 mg/kg, Day 14, F, 500 mg/kg PO, read-out: CL/F (CLss/F) (converted)",37.5 mL/min/kg
same,Cmax,"female, rat, in vivo, po, 500 mg/kg, Day 14, F, 500 mg/kg PO, read-out: Cmax",75 µg/mL
same,Vd/F,"female, rat, in vivo, po, 500 mg/kg, Day 14, F, 500 mg/kg PO, read-out: V/F (Vss/F)",13.6 L/kg
same,half-life,"female, rat, in vivo, po, 500 mg/kg, Day 14, F, 500 mg/kg PO, read-out: t1/2 (converted)",4.2 h
same,Tmax,"female, rat, in vivo, po, 500 mg/kg, Day 14, F, 500 mg/kg PO, read-out: tmax",1 h
same,AUC,[3],297 µg·h/mL
same,AUC(0-inf),[3],303 µg·h/mL
same,CL/F,"female, rat, in vivo, po, 500 mg/kg, Day 28, F, 500 mg/kg PO, read-out: CL/F (CLss/F) (converted)",28 mL/min/kg
same,Cmax,"female, rat, in vivo, po, 500 mg/kg, Day 28, F, 500 mg/kg PO, read-out: Cmax",86.4 µg/mL
same,Vd/F,"female, rat, in vivo, po, 500 mg/kg, Day 28, F, 500 mg/kg PO, read-out: V/F (Vss/F)",11.2 L/kg
same,half-life,"female, rat, in vivo, po, 500 mg/kg, Day 28, F, 500 mg/kg PO, read-out: t1/2 (converted)",4.62 h
same,Tmax,"female, rat, in vivo, po, 500 mg/kg, Day 28, F, 500 mg/kg PO, read-out: tmax",0.5 h
same,AUC,[4],788 µg·h/mL
same,AUC(0-inf),[4],794 µg·h/mL
same,CL/F,"female, rat, in vivo, po, 1000 mg/kg, Day 1, F, 1000 mg/kg PO, read-out: CL/F (CLz/F) (converted)",21 mL/min/kg
same,Cmax,"female, rat, in vivo, po, 1000 mg/kg, Day 1, F, 1000 mg/kg PO, read-out: Cmax",108 µg/mL
same,Vd/F,"female, rat, in vivo, po, 1000 mg/kg, Day 1, F, 1000 mg/kg PO, read-out: V/F (Vz/F)",6.15 L/kg
same,half-life,"female, rat, in vivo, po, 1000 mg/kg, Day 1, F, 1000 mg/kg PO, read-out: t1/2 (converted)",3.39 h
same,AUC,[5],430 µg·h/mL
same,AUC(0-inf),[5],437 µg·h/mL
same,CL/F,"female, rat, in vivo, po, 1000 mg/kg, Day 14, F, 1000 mg/kg PO, read-out: CL/F (CLss/F) (converted)",38.7 mL/min/kg
same,Cmax,"female, rat, in vivo, po, 1000 mg/kg, Day 14, F, 1000 mg/kg PO, read-out: Cmax",96.3 µg/mL
same,Vd/F,"female, rat, in vivo, po, 1000 mg/kg, Day 14, F, 1000 mg/kg PO, read-out: V/F (Vss/F)",14 L/kg
same,half-life,"female, rat, in vivo, po, 1000 mg/kg, Day 14, F, 1000 mg/kg PO, read-out: t1/2 (converted)",4.19 h
same,AUC,[6],736 µg·h/mL
same,AUC(0-inf),[6],741 µg·h/mL
same,CL/F,"female, rat, in vivo, po, 1000 mg/kg, Day 28, F, 1000 mg/kg PO, read-out: CL/F (CLss/F) (converted)",22.7 mL/min/kg
same,Cmax,"female, rat, in vivo, po, 1000 mg/kg, Day 28, F, 1000 mg/kg PO, read-out: Cmax",128 µg/mL
same,Vd/F,"female, rat, in vivo, po, 1000 mg/kg, Day 28, F, 1000 mg/kg PO, read-out: V/F (Vss/F)",6.26 L/kg
same,half-life,"female, rat, in vivo, po, 1000 mg/kg, Day 28, F, 1000 mg/kg PO, read-out: t1/2 (converted)",3.2 h
same,Tmax,"female, rat, in vivo, po, 1000 mg/kg, Day 28, F, 1000 mg/kg PO, read-out: tmax",1 h
same,AUC,[7],1160 µg·h/mL
same,AUC(0-inf),[7],1320 µg·h/mL
same,CL/F,"female, rat, in vivo, po, 2000 mg/kg, Day 1, F, 2000 mg/kg PO, read-out: CL/F (CLz/F) (converted)",25.2 mL/min/kg
same,Cmax,"female, rat, in vivo, po, 2000 mg/kg, Day 1, F, 2000 mg/kg PO, read-out: Cmax",118 µg/mL
same,Vd/F,"female, rat, in vivo, po, 2000 mg/kg, Day 1, F, 2000 mg/kg PO, read-out: V/F (Vz/F)",17.6 L/kg
same,AUC,[8],942 µg·h/mL
same,AUC(0-inf),[8],952 µg·h/mL
same,CL/F,"female, rat, in vivo, po, 2000 mg/kg, Day 14, F, 2000 mg/kg PO, read-out: CL/F (CLss/F) (converted)",35.3 mL/min/kg
same,Cmax,"female, rat, in vivo, po, 2000 mg/kg, Day 14, F, 2000 mg/kg PO, read-out: Cmax",127 µg/mL
same,Vd/F,"female, rat, in vivo, po, 2000 mg/kg, Day 14, F, 2000 mg/kg PO, read-out: V/F (Vss/F)",10.9 L/kg
same,half-life,"female, rat, in vivo, po, 2000 mg/kg, Day 14, F, 2000 mg/kg PO, read-out: t1/2 (converted)",3.56 h
same,Tmax,"female, rat, in vivo, po, 2000 mg/kg, Day 14, F, 2000 mg/kg PO, read-out: tmax",1 h
same,AUC,[9],1300 µg·h/mL
same,AUC(0-inf),[9],1330 µg·h/mL
same,CL/F,"female, rat, in vivo, po, 2000 mg/kg, Day 28, F, 2000 mg/kg PO, read-out: CL/F (CLss/F) (converted)",25.5 mL/min/kg
same,Cmax,"female, rat, in vivo, po, 2000 mg/kg, Day 28, F, 2000 mg/kg PO, read-out: Cmax",139 µg/mL
same,Vd/F,"female, rat, in vivo, po, 2000 mg/kg, Day 28, F, 2000 mg/kg PO, read-out: V/F (Vss/F)",8.7 L/kg
same,half-life,"female, rat, in vivo, po, 2000 mg/kg, Day 28, F, 2000 mg/kg PO, read-out: t1/2 (converted)",3.93 h
same,Tmax,"female, rat, in vivo, po, 2000 mg/kg, Day 28, F, 2000 mg/kg PO, read-out: tmax",0.5 h
same,AUC,[10],270 µg·h/mL
same,AUC(0-inf),[10],275 µg·h/mL
same,CL/F,"male, rat, in vivo, po, 500 mg/kg, Day 1, M, 500 mg/kg PO, read-out: CL/F (CLz/F) (converted)",30.3 mL/min/kg
same,Cmax,"male, rat, in vivo, po, 500 mg/kg, Day 1, M, 500 mg/kg PO, read-out: Cmax",55.1 µg/mL
same,Vd/F,"male, rat, in vivo, po, 500 mg/kg, Day 1, M, 500 mg/kg PO, read-out: V/F (Vz/F)",11 L/kg
same,half-life,"male, rat, in vivo, po, 500 mg/kg, Day 1, M, 500 mg/kg PO, read-out: t1/2 (converted)",4.18 h
same,Tmax,"male, rat, in vivo, po, 500 mg/kg, Day 1, M, 500 mg/kg PO, read-out: tmax",1 h
same,AUC,[11],244 µg·h/mL
same,AUC(0-inf),[11],258 µg·h/mL
same,CL/F,"male, rat, in vivo, po, 500 mg/kg, Day 14, M, 500 mg/kg PO, read-out: CL/F (CLss/F) (converted)",34.2 mL/min/kg

# — patent US20200246316A1, “METHODS OF TREATING POST-SURGICAL PAIN WITH A THIAZOLINE ANTI-HYPERALGESIC AGENT” (CERSCI THERAPEUTICS, INC., priority 2019, published 2020)
